Assay results: the NIST ThermoML archive (doi:10.1016/j.fluid.2005.01.007)
± gives the expanded uncertainty stated by the source.

Legend:
[1] = Liquid; for mass density: 298.15 K, 101.33 kPa
[2] = refractive index (Na D-line) (dimensionless); conditions: 298.15 K; 101.33 kPa; Liquid; Standard Abbe refractometry

SMILES | mass density [1] [kg/m3] | vapor or sublimation pressure ([1]; 351.44 K) [kPa] | refractive index [2] | vapor or sublimation pressure ([1]; 329.26 K) [kPa] | vapor or sublimation pressure ([1]; 372.33 K) [kPa]
CCO [ethanol] | 785.09 ± 0.62 | 101.32 ± 0.55 | 1.35926 ± 0.00072 | – | –
CC(C)=O [acetone] | 785.47 ± 0.61 | – | 1.35597 ± 0.00072 | 101.32 ± 0.55 | –
CC(C)CC(C)(C)C [2,2,4-trimethylpentane] | 687.72 ± 0.81 | – | 1.38887 ± 0.00072 | – | 101.32 ± 0.55
